Values quoted from earlier work in patent US20260138960A1, “A PROCESS FOR THE PREPARATION OF CRYSTALLINE FORM OF TAFAMIDIS” (BIOPHORE INDIA PHARMACEUTICALS PVT. LTD, priority 2022, published 2026).

Conditions: poorly soluble, but permeate biological membranes well

| Structure (SMILES) | biopharmaceutical classification system (BCS) class |
| --- | --- |
| CNC[C@H](O)[C@@H](O)[C@H](O)[C@H](O)CO.O=C(O)c1ccc2nc(-c3cc(Cl)cc(Cl)c3)oc2c1 [Tafamidis meglumine] | class II |
| O=C(O)c1ccc2nc(-c3cc(Cl)cc(Cl)c3)oc2c1 [Tafamidis, 2-(3,5-dichlorophenyl)-1,3-benzoxazole-6-carboxylic acid] | class II |
